Where a name gives a salt, the structure may show the parent alone. Read-outs that look alike come from different tables or passages of the source.
Key:
Format in all cases: cell-based
[1] = system: breast cancer cell line SKBR3; test: Caspase cascade activation in SKBR3 cells; conditions: Homo sapiens, SK-BR-3, 48 h, read-out: Caspase Activation Potency EC50 SKBR3
[2] = system: human Burkitt's lymphoma cell line Namalwa; test: Caspase cascade activation in Namalwa cells; conditions: Burkitts lymphoma cell, 48 h, read-out: Caspase Activation Potency EC50 Namalwa
[3] = system: human colon carcinoma cell line HCT116; test: Caspase cascade activation in HCT116 cells; conditions: read-out: Caspase activation Potency EC50 HCT116 (48 h)
Outline: (§1)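 Cells were exposed to compound at 0.016 to 10 μM final for 24 h or 48 h at 37 °C. They were then lysed with 14 μM N-(Ac-DEVD)-N′-ethoxycarbonyl-R110 in lysolecithin/DTT/PIPES buffer pH 7.2 for 3 h at room temperature (ex 485/em 530 nm). EC50 came from a sigmoidal fit of net RFU relative to untreated control.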

[4] = system: human lymphoma cell line Raji; test: Caspase cascade activation in Raji cells; conditions: 48 h, read-out: Caspase Activation Potency EC50 Raji
[5] = system: human B cell lymphoblastoid cell line Ramos; test: Caspase cascade activation in Ramos cells; conditions: 48 h, read-out: Caspase Activation Potency EC50 Ramos
[6] = system: human breast cancer cell line T-47D; test: Caspase cascade activation (DEVD-R110 fluorogenic substrate) in T-47D cells
Outline: as §1

[7] = system: human hepatocellular carcinoma cell line SNU398; test: Caspase cascade activation in SNU398 cells; conditions: read-out: Caspase activation Potency EC50 SNU398 (48 h)
Outline: as §1

[8] = system: human breast cancer cell line MX-1; test: Inhibition of cell proliferation (GI50) in MX-1 cells; conditions: Table III, MX1 cells, 48 h, read-out: GI50 in Cancer Cells MX1
Protocol: (§2) Human breast cancer cell lines T-47D, MX-1 and MDAMB435, human colon cancer cell line HT29, and human lung cancer cell line H1299 were grown and harvested as in Example 75. An aliquot of […] of cells (4.4×10^4 cells/mL) was added to a well of a 96-well microtiter plate containing 5 μL of a 10% DMSO in RPMI-1640 media solution containing 10 nM to 100 μM of N-(2,5-dimethoxyphenyl)-2-methylthieno[3,2-d]pyrimidin-4-amine (1 nM to 10 μM final). An aliquot of 45 μL of cells was added to a well of a 96-well microtiter plate containing 5 μL of a 10% DMSO in RPMI-1640 media solution without compound as the control sample for maximal cell proliferation (Lmax). The samples were mixed by agitation and then incubated at 37° C. for 48 h in a 5% CO2-95% humidity incubator. After incubation, the samples were removed from the incubator and 25 μL of CellTiter-Glo™ reagent (Promega) was added. The samples were mixed by agitation and incubated at room temperature for 10-15 min. Plates were then read using a luminescent plate reader (Model SPECTRAfluor Plus, Tecan) to give Ltest values.
(§3) Baseline for GI50 (dose for 50% inhibition of cell proliferation) of initial cell numbers was determined by adding an aliquot of 45 μL of cells or 45 μL of media, respectively, to wells of a 96-well microtiter plate containing 5 μL of a 10% DMSO in RPMI-1640 media solution. The samples were mixed by agitation and then incubated at 37° C. for 0.5 h in a 5% CO2-95% humidity incubator. After incubation, the samples were removed from the incubator and 25 μL of CellTiter-Glo™ reagent (Promega) was added. The samples were mixed by agitation and incubated at 37° C. for 10-15 min at room temperature in a 5% CO2-95% humidity incubator. Fluorescence was read as above, (LStart) defining luminescence for initial cell number used as baseline in GI50 determinations.
(§4) GI50 (dose for 50% inhibition of cell proliferation) is the concentration where [(LTest−Lstart)/(LMax−Lstart)]=0.5.

[9] = system: human lung cancer cell line H1299; test: Caspase cascade activation in H1299 cells; conditions: NCI-H1299, 24 h, read-out: Caspase activation Potency EC50 H1299 (24 h)
Outline: as §1

[10] = system: human lung cancer cell line H1299; test: Inhibition of cell proliferation (GI50) in H1299 cells; conditions: NCI-H1299, Table III, 48 h
Protocol: as §2, §3, §4

[11] = system: human breast cancer cell line MDAMB435; test: Inhibition of cell proliferation (GI50) in MDAMB435 cells; conditions: MDA-MB-435, Table III, 48 h, read-out: GI50 in Cancer Cells MDAMB435
Protocol: as §2, §3, §4

[12] = system: human breast cancer cell line T-47D; test: Inhibition of cell proliferation (GI50, CellTiter-Glo) in T-47D cells; conditions: Table III, T47D cells, 48 h, read-out: GI50 in Cancer Cells T47D
Protocol: as §2, §3, §4

[13] = system: human colon cancer cell line HT29; test: Inhibition of cell proliferation (GI50) in HT29 cells; conditions: HT-29, Table III, 48 h
Protocol: as §2, §3, §4

[14] = Homo sapiens, T47D, 24 h, T47D cells, 24 h, read-out: Caspase activation Potency EC50 T47D (24 h)
[15] = Homo sapiens, T47D, 48 h, T-47D cells, 48 h, read-out: Caspase activation Potency EC50 T-47D (48 h)

SMILES | EC50 [1] | EC50 [2] | EC50 ([3]; 48 h, hydrochloride) | EC50 [4] | EC50 [5] | EC50 ([6]; T-47D cells, 48 h, hydrochloride, read-out: Caspase activation Potency EC50 T-47D (48 h)) | EC50 ([7]; 48 h, hydrochloride) | EC50 ([3]; Homo sapiens, HCT-116, 48 h) | GI50 [8] | EC50 [9] | GI50 [10] | GI50 [11] | GI50 [12] | GI50 [13] | EC50 [6, 14] | EC50 [6, 15] | EC50 ([7]; Homo sapiens, SNU-398, 48 h)
COc1cc(Nc2ncnc3ccsc23)cc(N(C)C)c1 [Example 70, N-(3-Dimethylamino-5-methoxyphenyl)thieno[3,2-d]pyrimidin-4-amine hydrochloride] | 153 nM | 204 nM | 433 nM | 399 nM | 173 nM | 241 nM | 238 nM |  |  |  |  |  |  |  |  |  | 
COc1ccc(OC)c(Nc2nc(C)nc3ccsc23)c1 [Example 1, N-(2,5-Dimethoxyphenyl)-2-methylthieno[3,2-d]pyrimidin-4-amine] |  |  |  |  |  |  |  | 2330 nM | 300 nM | 1550 nM | 1170 nM | 295 nM | 80 nM | 3550 nM | 65 nM | 40 nM | 557 nM
COc1ccc(OC)c(Nc2ncnc3scc(C)c23)c1 [Example 6, N-(2,5-Dimethoxyphenyl)-5-methylthieno[2,3-d]pyrimidin-4-amine hydrochloride] |  |  |  |  |  |  |  | > 10000 nM | > 10000 nM | > 10000 nM | > 10000 nM | > 10000 nM | > 10000 nM | > 10000 nM | > 10000 nM | > 10000 nM | > 10000 nM
